According to article PMC6849348, “Theranostic Application of a Novel G-Quadruplex-Forming DNA Aptamer Targeting Malate Synthase of Mycobacterium tuberculosis” (Molecular Therapy. Nucleic Acids, 2019):

Molecular target: MS (malate synthase, GlcB, Rv1837c) (Mycobacterium tuberculosis, UniProt P9WK17)
Experiment: DTNB assay of released CoA-SH at […] nm
Assay type: biochemical

Sequence of MS (malate synthase, GlcB, Rv1837c) (P9WK17 whole entry, looked up): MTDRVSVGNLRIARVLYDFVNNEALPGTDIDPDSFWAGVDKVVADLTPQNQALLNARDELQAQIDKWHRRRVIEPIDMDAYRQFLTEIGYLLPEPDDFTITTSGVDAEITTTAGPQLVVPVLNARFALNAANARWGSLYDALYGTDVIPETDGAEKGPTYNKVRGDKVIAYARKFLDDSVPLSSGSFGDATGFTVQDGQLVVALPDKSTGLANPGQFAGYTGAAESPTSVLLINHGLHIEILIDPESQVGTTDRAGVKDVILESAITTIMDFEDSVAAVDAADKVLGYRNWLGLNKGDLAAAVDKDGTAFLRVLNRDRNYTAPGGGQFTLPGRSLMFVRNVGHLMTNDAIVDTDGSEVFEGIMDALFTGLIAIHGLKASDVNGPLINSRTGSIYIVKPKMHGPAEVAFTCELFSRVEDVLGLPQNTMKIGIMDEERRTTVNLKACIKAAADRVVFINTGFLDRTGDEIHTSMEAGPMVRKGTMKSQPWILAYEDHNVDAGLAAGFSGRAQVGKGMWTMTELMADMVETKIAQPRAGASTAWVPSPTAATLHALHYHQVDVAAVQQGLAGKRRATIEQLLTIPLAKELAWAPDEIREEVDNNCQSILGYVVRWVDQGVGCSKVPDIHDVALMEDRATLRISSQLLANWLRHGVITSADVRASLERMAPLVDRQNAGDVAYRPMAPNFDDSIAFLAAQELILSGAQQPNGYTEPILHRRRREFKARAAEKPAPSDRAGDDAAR

Structure (SMILES) | IC50 [µM]
C=C(OP(=O)(O)O)C(=O)O [phosphoenolpyruvate] | 374
O=C(O)C(=O)CBr [bromopyruvate] | 114
